Assay results from patent US7368429B2, “Peptide specificity of anti-myelin basic protein and the administration of myelin basic protein peptides to multiple sclerosis patients” (The Governors of the University of Alberta, priority 1991, dated 2008).
Where no end group is shown, it is not given here.

Tests used:
[1] = tested on: anti-MBP purified from CSF of MS patients; assay: In vitro neutralization of purified anti-MBP (liquid phase assay, then solid phase radioimmunoassay); type: binding, human; settings: for neutralization of purified anti-MBP: pooled anti-MBP from 10 MS patients, FIG. 2; for REACTIVITY WITH ANTI-MBP: purified anti-MBP, h-MBP 0-1000 ng, peptides 0-10,000 ng, 1.5 hours incubation
Text: Purified MBP was coupled to CNBr-activated Sepharose 4B (Pharmacia™) according to the manufacturer's instructions. Purified CSF IgG containing increased anti-MBP levels from 35 patients with acute MS relapses was used to isolate anti-MBP by MBP-Sepharose affinity chromatography (Warren, K. G. and Catz, I., J Neurol Sci 103:90-96, 1991). Purified anti-MBP samples were compared with the initial IgG source by poly-acrylamide gel electrophoresis. When purified anti-MBP samples were absorbed to zero with MBP, the post-absorption supernatants contained no residual IgG indicating the purity of anti-MBP.
Constant amounts of anti-MBP (15 radioactivity binding units corresponding to 100 for scale expansion purposes=% 0) were incubated with increasing amounts of h-MBP (0-1000 ng) or individual peptides of MBP (0-10,000 ng) in a liquid phase assay and after 1.5 hours incubation, free anti-MBP levels were determined in all mixtures. Anti-MBP isolated from 7 individual MS patients or pooled anti-MBP from 10 different MS patients were used in neutralization experiments. […] Another mouse monoclonal antibody to epitope 45-50 was used as negative antibody control.
(§1) Anti-MBP levels were determined by a solid phase radioimmunoassay with human MBP (Warren, K. G. and Catz, I., Ann Neurol 209:20-25, 1986; Warren, K. G. and Catz, I., Ann Neurol 21:183-187, 1987; and Warren, K. G. and Catz, I., J Neurol Sci 91:143-151, 1989). Free anti-MBP levels were measured in all fractions from affinity chromatography and in all neutralization mixtures. All individual samples were run in quadruplicate using the same iodinated material in order to minimize between-assay variability.

MAb to peptide MBP64-78 = assay: Positive antibody control of neutralization assay; type: binding
Protocol: (§2) Constant amounts of anti-MBP (15 radioactivity binding units corresponding to 100 for scale expansion purposes=% 0) were incubated with increasing amounts of h-MBP (0-1000 ng) or individual peptides of MBP (0-10,000 ng) in a liquid phase assay and after 1.5 hours incubation, free anti-MBP levels were determined in all mixtures. Anti-MBP isolated from 7 individual MS patients or pooled anti-MBP from 10 different MS patients were used in neutralization experiments. […] One monoclonal antibody (MAb) to peptide MBP64-78 and a polyclonal rabbit antiserum to peptide MBP1-8 were used as positive antibody controls (Groome, N., Harland, J., and Dawkes, A., Neurochem Int 7:309-317, 1985; Barry, R., Payton, M., and Groome, N., Neurochem Int 2:291-300, 1991). Another mouse monoclonal antibody to epitope 45-50 was used as negative antibody control.
as §1

[2] = tested on: polyclonal rabbit antiserum to peptide MBP1-8; assay: Positive antibody control of neutralization assay; type: binding
Protocol: as §2, §1

[3] = tested on: mouse monoclonal antibody to epitope 45-50; assay: Negative antibody control of neutralization assay; type: binding
Protocol: as §2, §1

[4] = tested on: F and B anti-MBP purified from MS brain tissue; assay: Competitive inhibition assay with MBP decapeptides (epitope localization); type: binding, human; settings: percent inhibition = 100 - radioactivity units, FIG. 10
Protocol: Prior to being assayed all CSF and/or tissue samples were diluted to a final IgG concentration of 0.010 g/l. F anti-MBP was detected directly in CSF or tissue extract while B levels of antibody were determined following acid hydrolysis of immune complexes with glycine HCl buffer pH 2.2. Non-specific binding was performed for each sample in uncoated wells. For epitope localization, synthetic peptides were firstly reacted with purified antibody in a liquid phase competitive assay and then anti-MBP was determined by radioimmunoassay in all resulting supernatants. Results of the combined competitive binding assay and radioimmunoassay were expressed as percent inhibition of synthetic peptide defined as 100—radioactivity units. Samples were done in 10 replicates and counted for 10 minutes each in a LKB1275 Minigamma counter. A pool of tissue-purified anti-MBP was used at 5 pre-established dilutions as positive controls. Pooled CSF from patients with non-neurological diseases was used as negative controls. Within assay reproducibility was between 3 and 5% and between assay variation was less than 7%.
The peptide(s) producing maximum inhibition were considered to be most highly associated with the antibody binding site.

Row | Substance | neutralization of purified anti-MBP [1] | REACTIVITY WITH ANTI-MBP [1] | inhibition of MAb to peptide MBP64-78 (MAb to peptide MBP64-78) | inhibition of antibody to peptide MBP1-8 [2] | neutralization of anti-MBP purified from individual patients ([1]; anti-MBP from 7 individual MS patients, FIG. 3) | reaction with MAb to MBP 45-50 [3] | percent inhibition of F and B anti-MBP [4]
1 | ARTAHYGSLPQKSHG [MBP64-78] | partially neutralized | + | inhibited |  |  |  | 
2 | MBP1-8: synthetic peptide of human MBP sequence 1-8 with unnatural cysteine residue (ASQKRPSQC) |  | − |  | inhibited |  |  | 
3 | MBP: Native human myelin basic protein isolated from non-MS brain tissue, 18.5 KD (ASQKRPSQRHGSKYLATASTMDHARHGFLPRHRDTG) | completely neutralized | ++ |  |  | completely neutralized | did not react | 100%
